Test results published in ChEMBL document CHEMBL3853268, “Thiosemicarbazone modification of 3-acetyl coumarin inhibits Aβ peptide aggregation and protect against Aβ-induced cytotoxicity” (Eur J Med Chem, 2016).
Activity calls are given as the source filed them. No cut-off for these calls is given here.

What was measured:
[1] = biological target: Amyloid-beta precursor protein (Homo sapiens) (UniProt P05067); assay: Inhibition of HFIP-induced amyloid beta (1 to 42 residues) (unknown origin) aggregation assessed as decrease in levels of higher aggregates at 1:1 protein to compound ratio preincubated for 15 mins followed by HFIP addition measured after 40 mins by silver staining-based native PAGE assay
Amyloid-beta precursor protein (Homo sapiens), sequence (P05067 whole entry, the tested form may be a part): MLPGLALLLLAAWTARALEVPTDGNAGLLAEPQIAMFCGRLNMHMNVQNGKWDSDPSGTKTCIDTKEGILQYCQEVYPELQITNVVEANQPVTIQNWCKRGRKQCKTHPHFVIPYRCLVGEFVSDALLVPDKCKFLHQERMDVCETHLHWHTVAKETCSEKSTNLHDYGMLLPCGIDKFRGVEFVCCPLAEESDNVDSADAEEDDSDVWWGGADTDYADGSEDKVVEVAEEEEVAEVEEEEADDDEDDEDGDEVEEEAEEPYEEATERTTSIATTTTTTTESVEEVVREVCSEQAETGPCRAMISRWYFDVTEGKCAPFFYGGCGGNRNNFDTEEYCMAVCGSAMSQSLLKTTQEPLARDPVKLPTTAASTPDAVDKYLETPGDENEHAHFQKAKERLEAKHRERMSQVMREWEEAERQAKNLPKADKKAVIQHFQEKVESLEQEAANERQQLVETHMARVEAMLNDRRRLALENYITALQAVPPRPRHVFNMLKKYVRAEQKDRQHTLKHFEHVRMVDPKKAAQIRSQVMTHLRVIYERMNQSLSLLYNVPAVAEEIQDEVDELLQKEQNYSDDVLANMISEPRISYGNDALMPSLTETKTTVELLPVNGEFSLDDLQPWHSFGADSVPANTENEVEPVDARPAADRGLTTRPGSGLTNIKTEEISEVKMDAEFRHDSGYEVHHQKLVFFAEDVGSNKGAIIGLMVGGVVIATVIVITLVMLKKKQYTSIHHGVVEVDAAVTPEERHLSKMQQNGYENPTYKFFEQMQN

[2] = biological target: Amyloid-beta precursor protein (Homo sapiens) (UniProt P05067); assay: Inhibition of HFIP-induced amyloid beta (1 to 42 residues) (unknown origin) aggregation at 1:1 protein to compound ratio preincubated for 15 mins followed by HFIP addition measured after 40 mins by ThT fluorescence assay relative to control
[3] = biological target: Amyloid-beta precursor protein (Homo sapiens) (UniProt P05067); assay: Inhibition of HFIP-induced amyloid beta (1 to 42 residues) (unknown origin) aggregation at 1:0.5 protein to compound ratio preincubated for 15 mins followed by HFIP addition measured after 40 mins by ThT fluorescence assay
[4] = biological target: Amyloid-beta precursor protein (Homo sapiens) (UniProt P05067); assay: Inhibition of HFIP-induced amyloid beta (1 to 42 residues) (unknown origin) aggregation at 1:1 protein to compound ratio preincubated for 15 mins followed by HFIP addition measured after 40 mins by silver staining-based native PAGE assay
[5] = biological target: Amyloid-beta precursor protein (Homo sapiens) (UniProt P05067); assay: Inhibition of HFIP-induced amyloid beta (1 to 42 residues) (unknown origin) aggregation at 1:1 protein to compound ratio preincubated for 15 mins followed by HFIP addition measured after 40 mins by ANS extrinsic fluorescence assay relative to control
[6] = Cytotoxicity against human SH-SY5Y cells assessed as decrease in cell viability after 24 hrs by MTT assay; assay type: toxicity, cell-based
[7] = biological target: Amyloid-beta precursor protein (Homo sapiens) (UniProt P05067); assay: Inhibition of HFIP-induced amyloid beta (1 to 42 residues) (unknown origin) aggregation at 1:0.75 protein to compound ratio preincubated for 15 mins followed by HFIP addition measured after 40 mins by ThT fluorescence assay
[8] = Neuroprotective activity against amyloid beta (1 to 42 residues)-induced toxicity in human SH-SY5Y cells assessed as cell viability at 5 to 20 uM after 3 days by MTT assay (reference value: 28%); assay type: functional
[9] = biological target: Amyloid-beta precursor protein (Homo sapiens) (UniProt P05067); assay: Inhibition of HFIP-induced amyloid beta (1 to 42 residues) (unknown origin) aggregation at 1:1 protein to compound ratio preincubated for 15 mins followed by HFIP addition measured after 40 mins by turbidity assay relative to control
[10] = biological target: Amyloid-beta precursor protein (Homo sapiens) (UniProt P05067); assay: Inhibition of HFIP-induced amyloid beta (1 to 42 residues) (unknown origin) aggregation at 1:0.25 protein to compound ratio preincubated for 15 mins followed by HFIP addition measured after 40 mins by ThT fluorescence assay relative to control

inhibition [1] | inhibition [2] | inhibition [3] | inhibition [4] | inhibition [5] | inhibition [7] | inhibition [9] | inhibition [10] | SMILES | IC50 at 24 h ([6]; human, SH-SY5Y cells) | Activity [8] | IC50 ([6]; sh-sy5y)
Active | 50% | Active | Active | 40% | Active | 59% | 40% | CC(=O)c1cc2ccccc2oc1=O [3-ACETYLCOUMARIN] | 75 µM | 77% | 
Active | 80% | Active | Active | 86% | Active | 78% | 53% | C/C(=N\NC(N)=S)c1cc2ccccc2oc1=O |  | 95% | ≤ 185 µM
 |  |  | Active |  |  |  |  | Oc1c(I)cc(Cl)c2cccnc12 |  |  | 
